Test results published in patent publication US20230212549A1, “COMPOUNDS COMPRISING A […] LIGAND AND USE THEREOF” (priority 2021, published 2023).
Numbered stars: 1 amine (or outer) side, 2 acyl side, 3 side chain; on linkers, the order of the positions; unused ones are H or OH. Bridge positions count the residues as written; N and C are the ends. Square brackets hold non-standard residues; d marks the D form. Peptide text beside a SMILES is read from it. * marks the point of attachment. ξ: configuration not given here. X35 = CC1(C)C(=CC=CC=CC2=[N+](CCCCS(=O)(=O)[O-])c3ccccc3C2(C)C)N(CCCCCC(=O)N2CCN(Cc3cc(C[*:1])cc(C[*:2])c3)CC2)c2ccccc21; X13 = O=C(O)CN1CCN(CC(=O)O)CCN(CC(=O)N2CCN(Cc3cc(C[*:1])cc(C[*:2])c3)CC2)CCN(CC(=O)O)CC1; X7 = O=C(CCP(=O)(O)CN1CCN(CP(=O)(O)CO)CCN(CP(=O)(O)CO)CC1)NCCSCc1cc(C[*:1])cc(C[*:2])c1; X12 = O=C(O)CN1CCN(CC(=O)O)CCN(CC(=O)NCCCOCCOCCOCCCN*)CCN(CC(=O)O)CC1; DOTA = O=C(O)CN1CCN(CC(=O)O)CCN(CC(=O)*)CCN(CC(=O)O)CC1; mXylylene = c1cc(C[*:1])cc(C[*:2])c1; PEG6 = NCCOCCOCCOCCOCCOCCOCCC(=O)O; NMeF = CN[C@@H](Cc1ccccc1)C(=O)O; Suc = O=C(CCC(=O)[*:2])[*:1]; Nle = CCCC[C@H](N)C(=O)O; X2 = NCCNCC(CNCCN)C(=O)*; Hexanoyl = CCCCCC(=O)*; Inp = O=C(O)C1CCNCC1; ξC = NC(CS)C(=O)O; βAla = NCCC(=O)O

Assays:
Human recombinant FAP = Human recombinant FAP (Homo sapiens, UniProt Q12884); assay: FRET-based FAP protease activity assay; type: biochemical; parameters: purchased R&D systems 3715-SE
[1] = biological target: T1, FAP-expressing human WI-38 fibroblasts (Homo sapiens, UniProt Q12884); assay: Competitive FACS binding assay
T1 construct: FAP-expressing human WI-38 fibroblasts (ECACC) were cultured in EMEM; host or cells: WI-38 human fibroblasts
Description: Cells were analyzed in an Attune NxT flow cytometer. […] […].
Cells were analyzed in an Attune NxT flow cytometer. […]

[2] = pIC50 Category (activity), Recombinant human FAP
[3] = pIC50 Category (Activity), FRET-based FAP protease activity assay, recombinant human FAP, 37° C.

T1 sequence (Q12884 whole entry): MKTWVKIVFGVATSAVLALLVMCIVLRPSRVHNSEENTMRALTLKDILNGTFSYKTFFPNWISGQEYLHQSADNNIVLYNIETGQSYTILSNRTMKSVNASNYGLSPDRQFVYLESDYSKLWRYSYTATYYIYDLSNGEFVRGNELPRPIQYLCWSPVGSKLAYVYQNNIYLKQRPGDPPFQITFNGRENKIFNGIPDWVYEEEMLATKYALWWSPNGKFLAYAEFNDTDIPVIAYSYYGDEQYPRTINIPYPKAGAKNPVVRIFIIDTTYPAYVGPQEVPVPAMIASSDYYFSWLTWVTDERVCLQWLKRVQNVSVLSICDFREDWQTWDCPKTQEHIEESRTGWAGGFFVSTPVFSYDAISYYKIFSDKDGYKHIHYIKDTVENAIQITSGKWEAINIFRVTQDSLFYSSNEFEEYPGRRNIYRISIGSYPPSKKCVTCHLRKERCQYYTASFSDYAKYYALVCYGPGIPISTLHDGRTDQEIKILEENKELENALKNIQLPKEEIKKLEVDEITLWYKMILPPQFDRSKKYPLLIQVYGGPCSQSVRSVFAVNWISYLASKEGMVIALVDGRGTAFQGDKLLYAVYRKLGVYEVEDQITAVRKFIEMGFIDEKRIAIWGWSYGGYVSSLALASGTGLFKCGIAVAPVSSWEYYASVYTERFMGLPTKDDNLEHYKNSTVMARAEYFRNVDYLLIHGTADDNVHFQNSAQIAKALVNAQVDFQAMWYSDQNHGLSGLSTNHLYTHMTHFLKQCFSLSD
Sequence of Human recombinant FAP (Q12884 whole entry): as above

| IC50 [1] [µM] | IC50 (Human recombinant FAP; [3]) [µM] | Compound | also measured |
| --- | --- | --- | --- |
| 0.01 to 0.0794 |  | C#CCCC(=O)N[C@H]1CSCc2cc(CSCCNC(=O)CN3CCN(CC(=O)O)CCN(CC(=O)O)CCN(CC(=O)O)CC3)cc(c2)CSC[C@@H](C(=O)O)NC(=O)[C@H](Cc2ccccc2)NC(=O)[C@H](CCC(N)=O)NC(=O)[C@H]([C@@H](C)O)NC(=O)[C@@H]2CCCN2C(=O)[C@@H]2CCCN2C1=O [3BP-3912, Pyn-[Cys(tMeBn(DOTA-AET))-Pro-Pro-Thr-Gln-Phe-Cys]-OH] | IC50 (Human recombinant FAP; pIC50 Category (Activity), FRET-peptide substrate, 37° C.): 0.1 to 0.794 µM |
|  |  | Hex-[Cys(3MeBn)-Pro-Pro-Thr-Glu-Phe-Cys]-Asp-Omp-Arg-NH2 [3BP-3302] | pIC50 Category (activity) (Human recombinant FAP; FRET-based FAP protease activity assay, recombinant human FAP, 37° C.): A (pIC50 category A stands for pIC50 values >8.0); pIC50 Category (FACS) ([1]; competition with 3 nM Cy5-labeled compound, WI-38 fibroblasts, 4° C., 1 hour): A (pIC50 category A stands for pIC50 values >8.0) |
| 0.1 to 0.794 |  | CCCC[C@H](NC(=O)CCNC(=O)CCOCCOCCOCCOCCOCCOCCNC(=O)C(CNCCN)CNCCN)C(=O)N[C@H]1CSCc2cccc(c2)CSC[C@@H](C(=O)O)NC(=O)[C@H](Cc2ccccc2)NC(=O)[C@H](CCC(=O)O)NC(=O)[C@H]([C@@H](C)O)NC(=O)[C@@H]2CCCN2C(=O)[C@@H]2CCCN2C1=O [3BP-4779, N4Ac-PEG6-Bal-Nle-[C(3MeBn)-PPTEFC]-OH] ({X2-PEG6-βAla}-[Nle]CPPTEFC-OH; linker 2-8 via mXylylene) | IC50 (Human recombinant FAP; [2]): > 1 µM |
|  | 0.01 to 0.0794 | CCCCCC(=O)N[C@H]1CSCc2cc(cc(CN3CCN(C(=O)CCCCCN4C(=CC=CC=CC5=[N+](CCCCS(=O)(=O)[O-])c6ccccc6C5(C)C)C(C)(C)c5ccccc54)CC3)c2)CSC[C@@H](C(=O)N[C@@H](CC(=O)O)C(N)=O)NC(=O)[C@H](Cc2ccccc2)NC(=O)[C@H](CCC(N)=O)NC(=O)[C@H]([C@@H](C)O)NC(=O)[C@@H]2CCCN2C(=O)[C@@H]2CCCN2C1=O [3BP-3693, Hex-[Cys(tMeBn(Cy5SO3-PP))-Pro-Pro-Thr-Gln-Phe-Cys]-Asp-NH2] (Hexanoyl-CPPTQFCD-NH2; linker 1-7 via X35) |  |
| < 0.01 | < 0.01 | CC(C)C[C@H](NC(=O)CCC(=O)NCCCOCCOCCOCCCNC(=O)CN1CCN(CC(=O)O)CCN(CC(=O)O)CCN(CC(=O)O)CC1)C(=O)N[C@H]1CSCc2cccc(c2)CSC[C@@H](C(=O)N[C@@H](CC(=O)O)C(=O)N[C@@H](Cc2c[nH]cn2)C(=O)N[C@@H](Cc2ccccc2)C(=O)N[C@@H](CCCNC(=N)N)C(=O)N[C@@H](CC(=O)O)C(N)=O)NC(=O)[C@H](Cc2ccccc2)NC(=O)[C@H](CCC(=O)O)NC(=O)[C@H]([C@@H](C)O)NC(=O)[C@@H]2CCCN2C(=O)[C@@H]2CCCN2C1=O [3BP-3172, DOTA-Ttds-Leu-[Cys(3MeBn)-Pro-Pro-Thr-Glu-Phe-Cys]-Asp-His-Phe-Arg-Asp-NH2] ({X12-Suc}-LCPPTEFCDHFRD-NH2; linker 2-8 via mXylylene) |  |
| 0.1 to 0.794 | 0.1 to 0.794 | C[C@@H](O)[C@@H]1NC(=O)[C@@H]2CCCN2C(=O)[C@@H]2CCCN2C(=O)[C@@H](NC(=O)CCCC(=O)O)CSCc2cccc(c2)CSC[C@@H](C(N)=O)NC(=O)[C@H](Cc2ccccc2)NC(=O)[C@H](CCC(N)=O)NC1=O [3BP-3765, HO-Glutar-[Cys(3MeBn)-Pro-Pro-Thr-Gln-Phe-Cys]-NH2] |  |
| 0.1 to 0.794 | 0.1 to 0.794 | C[C@@H](O)[C@@H]1NC(=O)[C@@H]2CCCN2C(=O)[C@@H]2CCCN2C(=O)[C@@H](NC(=O)C2CCN(C(=O)CN3CCN(CC(=O)O)CCN(CC(=O)O)CCN(CC(=O)O)CC3)CC2)CSCc2cccc(c2)CSC[C@@H](C(=O)N[C@@H](CC(=O)O)C(=O)N[C@@H](Cc2c[nH]cn2)C(=O)N(C)[C@@H](Cc2ccccc2)C(=O)N[C@@H](CCCNC(=N)N)C(=O)N[C@@H](CC(=O)O)C(N)=O)NC(=O)[C@H](Cc2ccccc2)NC(=O)[C@H](CCC(=O)O)NC1=O [3BP-3265, DOTA-Inp-[Cys(3MeBn)-Pro-Pro-Thr-Glu-Phe-Cys]-Asp-His-Nmf-Arg-Asp-NH2] ({DOTA-Inp}-CPPTEFCDH[NMeF]RD-NH2; linker 1-7 via mXylylene) |  |

| Compound | IC50 [1] [µM] | IC50 (Human recombinant FAP; [3]) [µM] | also measured |
| --- | --- | --- | --- |
| CCCCCC(=O)N[C@H]1CSCc2cc(CSCCNC(=O)CCP(=O)(O)CN3CCN(CP(=O)(O)CO)CCN(CP(=O)(O)CO)CC3)cc(c2)CSCC(C(=O)O)NC(=O)[C@H](Cc2ccccc2)NC(=O)[C@H](CCC(=O)O)NC(=O)[C@H]([C@@H](C)O)NC(=O)[C@@H]2CCCN2C(=O)[C@@H]2CCCN2C1=O (stereo partly drawn) [3BP-4818, Hex-[Cys(tMeBn(NOPO-AET))-Pro-Pro-Thr-Glu-Phe-Cys]-OH] (Hexanoyl-CPPTEF[ξC]-OH; linker 1-7 via X7) | 0.01 to 0.0794 |  | IC50 (Human recombinant FAP; [2]): 0.01 to 0.0794 µM |
| CCCCCC(=O)N[C@H]1CSCc2cc(cc(CN3CCN(C(=O)CN4CCN(CC(=O)O)CCN(CC(=O)O)CCN(CC(=O)O)CC4)CC3)c2)CSC[C@@H](C(=O)N[C@@H](CC(=O)O)C(N)=O)NC(=O)[C@H]([C@@H](C)O)NC(=O)[C@@H]2CCCN2C(=O)[C@H](Cc2ccccc2)NC(=O)[C@H](CCC(N)=O)NC(=O)[C@@H]2CCCN2C1=O [3BP-3857, Hex-[Cys(tMeBn(DOTA-PP))-Pro-Gln-Phe-Pro-Thr-Cys]-Asp-NH2] (Hexanoyl-CPQFPTCD-NH2; linker 1-7 via X13) | 0.1 to 0.794 | 0.1 to 0.794 |  |
